Data from US20170304388A1, “NEW INDICATION OF CARDIOVASCULAR DRUGS FOR PREPARATION OF CANCER INHIBITION PHARMACEUTICAL COMPOSITION” (LAUNX BIOMEDICAL CO., LTD., priority 2014, published 2017).
Where two headings read alike, the source gives them in different places.

How the values were obtained:
Type in all cases: cell-based
BxPC-3 = experiment: Cell viability analysis (WST-1), BxPC-3; details: Homo sapiens, BXPC-3, 72 h, Table 4, repeated experiments, drug 10 μM, read-out: survival rate (viability) of cancer cells, BxPC-3
Outline: (§1)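 Absorbance at OD450 nm after WST-1 incubation gave the survival rate. Cells (3000/well) were exposed to drug at 10 μM for 72 hours, then given WST-1 diluted 9:1 in medium for 30 to 90 minutes at 37° C.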

[1] = tested on: A375 (Amelanotic Melanoma); experiment: Cell viability analysis (WST-1), A375; details: Homo sapiens, A-375, 72 h
SAS = experiment: Cell viability analysis (WST-1), SAS; details: 72 h, Table 4, repeated experiments, drug 10 μM, read-out: survival rate (viability) of cancer cells, SAS
Outline: as §1

T24 = experiment: Cell viability analysis (WST-1), T24; details: Homo sapiens, T-24, 72 h, Table 4, repeated experiments, drug 10 μM, read-out: survival rate (viability) of cancer cells, T24
Outline: as §1

cancer cell lines = experiment: Growth inhibitory effects on the panel of cancer cell lines; details: count of cancer cell lines inhibited; drug 10 μM, 72 hours
MDA-MB231 = experiment: Cell viability analysis (WST-1), MDA-MB231; details: Homo sapiens, MDA-MB-231, 72 h, Table 4, repeated experiments, drug 10 μM, read-out: survival rate (viability) of cancer cells, MDA-MB231
C-33A = experiment: Cell viability analysis (WST-1), C-33A; details: Homo sapiens, C-33-A, 72 h, Table 4, repeated experiments, drug 10 μM, read-out: survival rate (viability) of cancer cells, C-33A
Outline: as §1

[2] = tested on: TSGH-8301 (Urinary Bladder Carcinoma); experiment: Cell viability analysis (WST-1), TSGH-8301; details: 72 h, Table 4, repeated experiments, drug 10 μM, WST-1, read-out: survival rate (viability) of cancer cells, TSGH-8301
NIH-OVCAR-3 = experiment: Cell viability analysis (WST-1), NIH-OVCAR-3; details: Homo sapiens, OVCAR-3, 72 h, Table 4, repeated experiments, drug 10 μM, read-out: survival rate (viability) of cancer cells, NIH-OVCAR-3
Outline: as §1

[3] = tested on: PC3 (Prostate Adenocarcinoma); experiment: Cell viability analysis (WST-1), PC3; details: 72 h
[4] = tested on: LoVo (Colorectal Adenocarcinoma); experiment: Cell viability analysis (WST-1), LoVo; details: Homo sapiens, LoVo, 72 h
[5] = tested on: H1650 (Lung Adenocarcinoma); experiment: Cell viability analysis (WST-1), H1650; details: Homo sapiens, NCI-H1650, 72 h
Hep3B = experiment: Cell viability analysis (WST-1), Hep3B; details: Homo sapiens, Hep3B, 72 h, Table 4, repeated experiments, drug 10 μM, read-out: survival rate (viability) of cancer cells, Hep3B
Outline: as §1

U2OS = experiment: Cell viability analysis (WST-1), U2OS; details: Homo sapiens, U2OS, 72 h, Table 4, repeated experiments, drug 10 μM, read-out: survival rate (viability) of cancer cells, U2OS
Outline: as §1

786-O = experiment: Cell viability analysis (WST-1), 786-O; details: Homo sapiens, 786-0, 72 h, Table 4, repeated experiments, drug 10 μM, read-out: survival rate (viability) of cancer cells, 786-O
Outline: as §1

[6] = tested on: HCT116 (Colorectal Carcinoma); experiment: Cell viability analysis (WST-1), HCT116; details: Homo sapiens, HCT-116, 72 h
[7] = tested on: MCF7 (Mammary Gland, Adenocarcinoma); experiment: Cell viability analysis (WST-1), MCF7; details: Homo sapiens, MCF7, 72 h
TOV-21G = experiment: Cell viability analysis (WST-1), TOV-21G; details: Homo sapiens, TOV21G, 72 h, Table 4, repeated experiments, drug 10 μM, read-out: survival rate (viability) of cancer cells, TOV-21G
Outline: as §1

AsPC-1 = experiment: Cell viability analysis (WST-1), AsPC-1; details: Homo sapiens, ASPC1, 72 h, Table 4, repeated experiments, drug 10 μM, read-out: survival rate (viability) of cancer cells, AsPC-1
Outline: as §1

In the case of `CCC(C)(C)C(=O)O[C@H]1C[C@@H](C)C=C2C=C[C@H](C)[C@H](CC[C@@H]3C[C@@H](O)CC(=O)O3)[C@H]21` [Simvastatin (Zocor), Simvastatin], the viability at 10 µM (BxPC-3) is reported as 81.8%, the viability at 10 µM ([1]; Table 3, drug 10 μM, WST-1, OD450 nm, lower viability = better inhibition, read-out: survival rate (viability) of cancer cells, A375) is reported as 114% and the viability at 10 µM ([1]; Table 4, repeated experiments, drug 10 μM, WST-1, read-out: survival rate (viability) of cancer cells, A375) is reported as 78.6%. The viability at 10 µM (SAS) was 83.9%, the viability at 10 µM (T24) was 89.6% and the “Numbers of inhibitory effect on cancer cell line” value (cancer cell lines) was 0. It also gave a viability at 10 µM (MDA-MB231) of 71.1%, a viability at 10 µM (C-33A) of 112% and a viability at 10 µM [2] of 106%. The viability at 10 µM (NIH-OVCAR-3) was 98.4%, the viability at 10 µM ([3]; Table 3, drug 10 μM, WST-1, OD450 nm, read-out: survival rate (viability) of cancer cells, PC3) was 91.8% and the viability at 10 µM ([3]; Table 4, repeated experiments, drug 10 μM, WST-1, read-out: survival rate (viability) of cancer cells, PC-3) was 92.8%. For the same compound, the viability at 10 µM ([4]; Table 3, drug 10 μM, WST-1, OD450 nm, read-out: survival rate (viability) of cancer cells, LoVo) was 99.9%, the viability at 10 µM ([4]; Table 4, repeated experiments, drug 10 μM, WST-1, read-out: survival rate (viability) of cancer cells, LoVo) was 89.3% and the viability at 10 µM ([5]; Table 3, drug 10 μM, WST-1, OD450 nm, read-out: survival rate (viability) of cancer cells, H1650) was 115%. The viability at 10 µM ([5]; Table 4, repeated experiments, drug 10 μM, WST-1, read-out: survival rate (viability) of cancer cells, H1650) was 79.8%, the viability at 10 µM (Hep3B) was 114% and the viability at 10 µM (U2OS) was 65.6%. The viability at 10 µM (786-O) was 87.8%, the viability at 10 µM ([6]; Table 3, drug 10 μM, WST-1, OD450 nm, read-out: survival rate (viability) of cancer cells, HCT116 (WT)) was 124% and the viability at 10 µM ([6]; Table 4, repeated experiments, drug 10 μM, WST-1, read-out: survival rate (viability) of cancer cells, HCT116) was 83.2%. For the same compound, the viability at 10 µM ([7]; Table 3, drug 10 μM, WST-1, OD450 nm, read-out: survival rate (viability) of cancer cells, MCF7) was 81.5%, the viability at 10 µM ([7]; Table 4, repeated experiments, drug 10 μM, WST-1, read-out: survival rate (viability) of cancer cells, MCF-7) was 88.8% and the viability at 10 µM (TOV-21G) was 63.6%. For the same compound, the viability at 10 µM (AsPC-1) was 78.2%.
